Laboratory results reported in US20120041035A1, “LEVAMLODIPINE COMPOUND PHARMACEUTICAL COMPOSITION” (SHIHUIDA PHARMACEUTICALS GROUP (JILIN) LTD, priority 2010, published 2012).

System: primary hypertension patients (systolic pressure ≧160 mmHg)
Test: Clinical use in primary hypertension patients, 8-week treatment
Assay type: in vivo, human
Conditions: after 8-week treatment, levamlodipine 5.0 mg/d, chlorthalidone 25.0 mg/d; for Edema Incidence / Hypokalemia Incidence: combined 2.5 mg/d and 12.5 mg/d; for Decrease of Systolic Pressure: combined levamlodipine 2.5 mg/d and chlorthalidone 12.5 mg/d, 30 patients each
Method: The selected primary hypertension patients (with a systolic pressure ≧160 mmHg) were divided into 3 groups of 30 patients each, the levamlodipine group was given levamlodipine at 5.0 mg/d; the chlorthalidone group was given chlorthalidone at 25.0 mg/d; and the combined administration group was given levamlodipine at 2.5 mg/d and chlorthalidone at 12.5 mg/d. After 8-week treatment, the decease of the systolic pressure, the edema incidence, and the hypokalemia incidence were observed.

| SMILES | Edema Incidence [%] | Hypokalemia Incidence [%] | Decrease of Systolic Pressure [mmHg] |
| --- | --- | --- | --- |
| NS(=O)(=O)c1cc(C2(O)NC(=O)c3ccccc32)ccc1Cl (stereo not drawn) [Chlorthalidone, 5(2,3-dihydro-1-hydroxy-3-oxo-1H-isoindol-1-yl)-2-chlorobenzenesulfonamide] | 0 | 20.3 | 20.5 ± 8.5 |
| CCOC(=O)C1=C(COCCN)NC(C)=C(C(=O)OC)[C@@H]1c1ccccc1Cl [Levamlodipine, 3-ethyl-5-methyl-2-(2-aminoethoxymethyl)-4-(2-chlorophenyl)-1,4-dihydro-6-methyl-3,5-pyridine dicarboxylate] | 10 | 0 | 22.7 ± 7.8 |
